B1: CSF-1: unmodified recombinant pig CSF-1 protein, non-fusion comparator (protein)
chain: SENCSHMIGDGHLKVLQQLIDSQMETSCQIAFEFVDQEQLTDPVCYLKKAFLQVQDILDETMRFRDNTPNANVIVQLQELSLRLNSCFTKDYEEQDKACVRTFYETPLQLLEKIKNVFNETKNLLKKDWNIFSKNCNNSFAKCSSQDVVTKPDCN

Columns and labels:
male C57BI6 mice [1] = assay: 2/3 partial hepatectomy in mice; format: in vivo, mouse
Experimental: Forty-eight male C57BI6 mice aged 10-12 weeks underwent either 2/3 partial hepatectomy, paracetamol intoxication or chronic liver injury plus 2/3 partial hepatectomy. 2/3 partial hepatectomy was performed by ligating the left lobe and left and right median lobes. Paracetamol intoxication was performed by intraperitoneal administration of 350 mg/kg paracetamol dissolved in phosphate buffered saline (PBS). Chronic liver injury plus 2/3 partial hepatectomy was performed by eight weeks intraperitoneal carbon tetrachloride administration 1 mcl/g twice weekly dissolved in olive oil followed by ⅔ partial hepatectomy as described above. […] Control mice (n=8 per injury model) received subcutaneous PBS of appropriate volume. […]
Following a midline laparotomy the liver was excised and weighed. Liver weight to body weight ratio was calculated and expressed as a percentage. Livers were fixed in 4% formalin overnight then transferred to 70% ethanol. Livers were then embedded in paraffin blocks and 4 μm sections cut. Immunohistochemistry for Ki67 (a marker of cellular proliferation expressed throughout the cell cycle) was performed following heat mediated antigen retrieval in Tris/EDTA solution at pH9. Hepatocyte proliferation was quantified by counting ki67 positive hepatocytes in 20 high powered fields (400×) per animal and the mean calculated. […]

male C57BI6 mice [2] = assay: Paracetamol intoxication in mice; format: in vivo, mouse; settings: CSF1 receptor blockade, 180 mg/kg via gavage; Day 3 post injury
Experimental: Forty-eight male C57BI6 mice aged 10-12 weeks underwent either 2/3 partial hepatectomy, paracetamol intoxication or chronic liver injury plus 2/3 partial hepatectomy. 2/3 partial hepatectomy was performed by ligating the left lobe and left and right median lobes. Paracetamol intoxication was performed by intraperitoneal administration of 350 mg/kg paracetamol dissolved in phosphate buffered saline (PBS). Chronic liver injury plus 2/3 partial hepatectomy was performed by eight weeks intraperitoneal carbon tetrachloride administration 1 mcl/g twice weekly dissolved in olive oil followed by ⅔ partial hepatectomy as described above. […] Control mice (n=8 per injury model) received subcutaneous PBS of appropriate volume. All mice were culled on day 4 following injury (partial hepatectomy or paracetamol intoxication).
Following a midline laparotomy the liver was excised and weighed. Liver weight to body weight ratio was calculated and expressed as a percentage. Livers were fixed in 4% formalin overnight then transferred to 70% ethanol. Livers were then embedded in paraffin blocks and 4 μm sections cut. Immunohistochemistry for Ki67 (a marker of cellular proliferation expressed throughout the cell cycle) was performed following heat mediated antigen retrieval in Tris/EDTA solution at pH9. Hepatocyte proliferation was quantified by counting ki67 positive hepatocytes in 20 high powered fields (400×) per animal and the mean calculated.
Hepatic CSF1 gene expression was assessed in mice following paracetamol intoxication (350 mg/kg paracetamol IP following overnight fast) at time points up to 4 days, showing peak CSF1 gene expression at day 2 (FIG. 14A).

[3] = test system: csf1r-EGFP (MacGreen) mice; assay: Fc-CSF-1 injected subcutaneously into csf1r-EGFP mice on 4 days, sacrificed on the 5th day; format: in vivo, mouse; settings: 1 mg/kg
Experimental: Mice were injected with Fc-CSF-1 subcutaneously on each of 4 days and sacrificed on the 5th day. The mice were csf1r-EGFP (MacGreen) mice on the C57BI/6 background. Tissue processing and immunohistochemistry were carried out as described in (Alikhan et al Am J. Pathol. 179, 1243-1256, 2011 and Macdonald et al Blood. 116, 3955-3963, 2010). A comparison of the effect of recombinant pig CSF-1 or Fc-CSF-1 on the proliferation of mouse bone marrow cells or the Ba/F3 CS1R reporter cell line using the assay described in Gow et al Cytokine.

Pig PK (plasma ELISA) = format: in vivo; settings: weaner pigs; 0.5 mg/kg SC
Experimental: Porcine CSF-1 Fc-fusion plasma levels were detected using an in-house developed conventional sandwich ELISA utilizing commercially available antibodies. Capture antibody was Abcam ab9693 (0.3 μg/mL) and detection antibody was Rabbit anti-pig IgG (Fc) biotinylated Alpha Diagnostic 90440 (1:5000 dilution). Standard protein was generated and purified in-house (lot 2/24/11 JAS). Standards were added to each plate along with the samples resulting in an 11 point standard range of 2700 ng/mL to […]. This allowed for quantitation of each sample to a standard curve on every assay plate. Assay detection was done using Pierce High Sensitivity Streptavidin-HRP (1:10,000 dilution) and TMB Microwell Peroxidase Substrate System solution (KPL).
Weaner age barrows (<14 kg) were assigned to three treatment groups receiving a single intravenous (IV) or subcutaneous (SC) dose as follows. Three pigs received 0.5 mg/kg CSF-1 non-fusion dosed SC. Two pigs received 1.2 mg/kg CSF-1:Fc fusion dosed IV. Two pigs received 1.2 mg/kg CSF-1:Fc dosed SC. One ml plasma samples were obtained via the V. jugularis in EDTA anticoagulant tubes and placed on ice until centrifuged. The plasma was transferred to sterile tubes stored at ≤−10° C. until analysis. Serial plasma samples were obtained from each animal at pre-dose and 5 minutes, 30 minutes, 1 hour, 2 hours, 4 hours, 6 hours, 8, hours, 24 hours, 48 hours, and 72 hours post-dose. CSF-1 and CSF-1:Fc fusion protein levels were quantitated in plasma using ELISA assays.

[4] = day 2 following partial hepatectomy, vs controls

| Molecule | serum ALT (marker of liver injury) (male C57BI6 mice [1]; CSF1 receptor blockade, 180 mg/kg via gavage) | hepatocyte proliferation (male C57BI6 mice [1]; CSF1 receptor blockade, 180 mg/kg via gavage, Day 3) | gene expression of oncostatin M (OSM) (male C57BI6 mice [1]; [4]) | gene expression of pro-regenerative cytokine 116 (male C57BI6 mice [1]; [4]) | urokinase receptor (UR) expression (male C57BI6 mice [1]; following partial hepatectomy, vs controls) | hepatocyte proliferation (male C57BI6 mice [2]) | liver weight to body weight ratio (male C57BI6 mice [2]) | serum ALT (marker of liver injury) (male C57BI6 mice [2]) | total body weight [3] | peak plasma level (Pig PK (plasma ELISA)) | time by which completely cleared from plasma (Pig PK (plasma ELISA)) |
| --- | --- | --- | --- | --- | --- | --- | --- | --- | --- | --- | --- |
| COc1ccc(COc2ccc(Cc3cnc(N)nc3N)cc2OC)cc1 [GW2580, reference compound] | raised | markedly impaired | significant reduction | significant reduction | reduction | impaired | reduced | raised |  |  |  |
| B1 |  |  |  |  |  |  |  |  | no effect | around 100 ng/ml | ≤ 20 h |

From US20180112193A1, “CSF1 THERAPEUTICS” (University Court Of The University Of Edinburgh, priority 2013, published 2018)
